Data taken from patent publication US6537986B2, “Oxazolidinone antibacterial agents having a thiocarbonyl funtionality” (Pharmacia & Upjohn Company, priority 1997, dated 2003).
Converted amounts (≈) assume the structure as drawn. Where two headings read alike, the source gives them in different places.

Key:
E. Faecium (EFAE 12712) = experiment: MIC, standard agar dilution method; assay type: cell-based; conditions: for MIC: Enterococcus faecium, read-out: EFAE 12712 MIC
Procedure: (§1) MIC Test Method The in vitro MICs of test compounds were determined by a standard agar dilution method. […] Serial 2-fold dilutions of each sample are made using 1.0 ml aliquots of sterile distilled water. To each 1.0 ml aliquot of drug is added 9 ml of molten Mueller Hinton agar medium. The drug-supplemented agar is mixed, poured into 15×100 mm petri dishes, and allowed to solidify and dry prior to inoculation. Vials of each of the test organisms are maintained frozen in the vapor phase of a liquid nitrogen freezer. Test cultures are grown overnight at 35° C. on the medium appropriate for the organism. Colonies are harvested with a sterile swab, and cell suspensions are prepared in Trypticase Soy broth (TSB) to equal the turbidity of a 0.5 McFarland standard. A 1:20 dilution of each suspension is made in TSB. […] The plates are incubated overnight at 35° C. Following incubation the Minimum Inhibitory Concentration (MIC μg/ml), the lowest concentration of drug that inhibits visible growth of the organism, is read and recorded.

[1] = tested on: Enterococcus faecalis (EFAE 9217); experiment: MIC, standard agar dilution method; assay type: cell-based; conditions: Table II, key: Enterococcus faecalis, Mueller Hinton agar, incubated overnight at 35° C.; for MIC: read-out: EFAE 9217 MIC
Procedure: as §1

[2] = tested on: Haemophilus influenzae (HINF 30063); experiment: MIC, standard agar dilution method; assay type: cell-based; conditions: Table II, Mueller Hinton agar, incubated overnight at 35° C.; for MIC: Haemophilus influenzae
Procedure: as §1

[3] = tested on: Moraxella catarrhalis (MCAT 30610); experiment: MIC, standard agar dilution method; assay type: cell-based; conditions: Table II, Mueller Hinton agar, incubated overnight at 35° C.; for MIC: Moraxella catarrhalis
Procedure: as §1

S. aureus (SAUR 9213) = experiment: MIC, standard agar dilution method; assay type: cell-based; conditions: Table II, Mueller Hinton agar, incubated overnight at 35° C.; for MIC: Staphylococcus aureus, read-out: SAUR 9213 MIC
Procedure: as §1

[4] = tested on: S. epidermidis (SEPI 30593); experiment: MIC, standard agar dilution method; assay type: cell-based; conditions: Table II, Mueller Hinton agar, incubated overnight at 35° C.; for MIC: Staphylococcus epidermidis
Procedure: as §1

[5] = tested on: S. pneumoniae (SPNE 9912); experiment: MIC, standard agar dilution method; assay type: cell-based; conditions: Table II, Mueller Hinton agar, incubated overnight at 35° C.; for MIC: Streptococcus pneumoniae, read-out: SPNE 9912 MIC
Procedure: as §1

S. pyogenes (SPYO 152) = experiment: MIC, standard agar dilution method; assay type: cell-based; conditions: Table II, Mueller Hinton agar, incubated overnight at 35° C.; for MIC: Streptococcus pyogenes, read-out: SPYO 152 MIC
Procedure: as §1

[6] = Table II, key: E. Faecium, agar dilution, Mueller Hinton agar, incubated overnight at 35° C.

Row | SMILES | MIC (E. Faecium (EFAE 12712)) [µg/mL] | MIC [1] [µg/mL] | MIC [2] [µg/mL] | MIC [3] [µg/mL] | MIC (S. aureus (SAUR 9213)) [µg/mL] | MIC [4] [µg/mL] | MIC [5] [µg/mL] | MIC (S. pyogenes (SPYO 152)) [µg/mL] | MIC (E. Faecium (EFAE 12712); [6]) [µg/mL] | melting point | EFAE 12712 MIC (E. Faecium (EFAE 12712); [6]) [µg/mL] | EFAE 9217 MIC [1] [µg/mL] | HINF 30063 MIC [2] [µg/mL] | MCAT 30610 MIC [3] [µg/mL] | SAUR 9213 MIC (S. aureus (SAUR 9213)) [µg/mL] | SEPI 30593 MIC [4] [µg/mL] | SPNE 9912 MIC [5] [µg/mL] | SPYO 152 MIC (S. pyogenes (SPYO 152)) [µg/mL]
1 | CC(=S)NC[C@H]1CN(c2ccc([C@H]3CC[S@@+]([O-])CC3)c(F)c2)C(=O)O1 [Example 7, (S)-cis-N-[[3-[3-Fluoro-4-(tetrahydro-1-oxido-2H-thiopyran-4-yl)phenyl]-2-oxo-5-oxazolidinyl]methyl]ethanethioamide] | 0.5 (≈ 1.3 µM) | 0.5 (≈ 1.3 µM) | 4 (≈ 10.4 µM) | 1 (≈ 2.6 µM) | 0.5 (≈ 1.3 µM) | 0.25 (≈ 0.65 µM) | < 0.125 | 0.25 (≈ 0.65 µM) | – | – | – | – | – | – | – | – | – | –
2 | NC(=S)NC[C@H]1CN(c2ccc([C@H]3CC[S@@+]([O-])CC3)c(F)c2)C(=O)O1 [Example 8, (S)-cis-[[3-[3-Fluoro-4-(tetrahydro-1-oxido-2H-thiopyran-4-yl)phenyl]-2-oxo-5-oxazolidinyl]methyl]thiourea] | – | 1 (≈ 2.59 µM) | 4 (≈ 10.4 µM) | 2 (≈ 5.19 µM) | 2 (≈ 5.19 µM) | 1 (≈ 2.59 µM) | < 0.125 | 0.25 (≈ 0.649 µM) | 0.5 (≈ 1.3 µM) | – | – | – | – | – | – | – | – | –
3 | CC(=S)NC[C@H]1CN(c2ccc([C@H]3CC[S@+]([O-])CC3)c(F)c2)C(=O)O1 [Example 9, (S)-trans-N-[[3-[3-Fluoro-4-(tetrahydro-1-oxido-2H-thiopyran-4-yl)phenyl]-2-oxo-5-oxazolidinyl]methyl]ethanethioamide] | – | 0.25 (≈ 0.65 µM) | 2 (≈ 5.2 µM) | 0.5 (≈ 1.3 µM) | 0.5 (≈ 1.3 µM) | 0.25 (≈ 0.65 µM) | < 0.125 | < 0.125 | 0.25 (≈ 0.65 µM) | – | – | – | – | – | – | – | – | –
4 | NC(=S)NC[C@H]1CN(c2ccc(C3CC[S+]([O-])CC3)c(F)c2)C(=O)O1 (stereo partly drawn) [Example 10, (S)-trans-[[3-[3-Fluoro-4-(tetrahydro-1-oxido-2H-thiopyran4-yl)phenyl]-2-oxo-5-oxazolidinyl]methyl]thiourea] | – | 1 (≈ 2.59 µM) | 2 (≈ 5.19 µM) | 1 (≈ 2.59 µM) | 2 (≈ 5.19 µM) | 1 (≈ 2.59 µM) | < 0.125 | 0.25 (≈ 0.649 µM) | 0.5 (≈ 1.3 µM) | – | – | – | – | – | – | – | – | –
5 | CC(=S)NC[C@H]1CN(c2ccc(C3CCS(=O)(=O)CC3)c(F)c2)C(=O)O1 [Example 11, (S)-N-[[3-[3-Fluoro-4-(tetrahydro-1,1-dioxido-2H-thiopyran-4-yl)phenyl]-2-oxo-5-oxazolidinyl]methyl]ethanethioamide] | – | 0.25 (≈ 0.624 µM) | 2 (≈ 4.99 µM) | 1 (≈ 2.5 µM) | 0.25 (≈ 0.624 µM) | 0.25 (≈ 0.624 µM) | < 0.125 | 0.25 (≈ 0.624 µM) | 0.25 (≈ 0.624 µM) | – | – | – | – | – | – | – | – | –
6 | NC(=S)NC[C@H]1CN(c2ccc(C3CCS(=O)(=O)CC3)c(F)c2)C(=O)O1 [Example 12, (S)-N-[[3-[3-Fluoro-4-(tetrahydro-1,1-dioxido-2H-thiopyran-4-yl)phenyl]-2-oxo-5-oxazolidinyl]methyl]thiourea] | – | 0.5 (≈ 1.25 µM) | 1 (≈ 2.49 µM) | 0.5 (≈ 1.25 µM) | 1 (≈ 2.49 µM) | 0.5 (≈ 1.25 µM) | < 0.125 | < 0.125 | 0.25 (≈ 0.623 µM) | – | – | – | – | – | – | – | – | –
7 | O=C1O[C@@H](CNC=S)CN1c1ccc(N2CCOCC2)c(F)c1 [Example 13, (S)-N-[[3-[3-Fluoro-4-(4-morpholinyl)phenyl]-2-oxo-5-oxazolidinyl]methyl]-thioformamide] | – | 2 (≈ 5.89 µM) | > 16 | 8 (≈ 23.6 µM) | 1 (≈ 2.95 µM) | 1 (≈ 2.95 µM) | 0.5 (≈ 1.47 µM) | 1 (≈ 2.95 µM) | 2 (≈ 5.89 µM) | 150 to 155 °C (dec.) | – | – | – | – | – | – | – | –
8 | CCC(=S)NC[C@H]1CN(c2ccc(N3CCOCC3)c(F)c2)C(=O)O1 [Example 14, (S)-N-[[3-[3-Fluoro-4-(4-morpholinyl)phenyl]-2-oxo-5-oxazolidinyl]methyl]thiopropion-amide] | – | 1 (≈ 2.72 µM) | 8 (≈ 21.8 µM) | 1 (≈ 2.72 µM) | 1 (≈ 2.72 µM) | 0.5 (≈ 1.36 µM) | 0.25 (≈ 0.68 µM) | 0.5 (≈ 1.36 µM) | 1 (≈ 2.72 µM) | 138 to 139 °C | – | – | – | – | – | – | – | –
9 | O=C1O[C@@H](CNC(=S)CCl)CN1c1ccc(N2CCOCC2)c(F)c1 [Example 15, (S)-N-[[3-[3-Fluoro-4-(4-morpholinyl)phenyl]-2-oxo-5-oxrazolidinyl]methyl]-2-chlorotlioacetamide] | – | 32 (≈ 82.5 µM) | > 64 | 64 (≈ 165 µM) | 32 (≈ 82.5 µM) | 16 (≈ 41.3 µM) | 4 (≈ 10.3 µM) | 8 (≈ 20.6 µM) | 32 (≈ 82.5 µM) | – | – | – | – | – | – | – | – | –
10 | O=C1O[C@@H](CNC(=S)C(F)(F)F)CN1c1ccc(N2CCOCC2)c(F)c1 [Example 16, (S)-N-[[3-[3-Fluoro-4-(4-moropholinyl)phenyl]-2-oxo-5-oxazolidinyl]methyl]-α,α,α-trifluorothioacetamide] | – | 16 (≈ 39.3 µM) | > 64 | 32 (≈ 78.5 µM) | 8 (≈ 19.6 µM) | 8 (≈ 19.6 µM) | 2 (≈ 4.91 µM) | 8 (≈ 19.6 µM) | 16 (≈ 39.3 µM) | 151 to 152 °C | – | – | – | – | – | – | – | –
11 | O=C1O[C@@H](CNC(=S)C(F)F)CN1c1ccc(N2CCOCC2)c(F)c1 [Example 18, (S)-N-[[3-[3-Fluoro-4-(4-morpholinyl)phenyl]-2-oxo-5-oxazolidinyl]methyl]-α,α-difluorothioacetamide] | – | 2 (≈ 5.14 µM) | 32 (≈ 82.2 µM) | 4 (≈ 10.3 µM) | 2 (≈ 5.14 µM) | 1 (≈ 2.57 µM) | < 0.5 | 1 (≈ 2.57 µM) | 2 (≈ 5.14 µM) | 125 to 127 °C | – | – | – | – | – | – | – | –
12 | N#CCC(=S)NC[C@H]1CN(c2ccc(N3CCOCC3)c(F)c2)C(=O)O1 [Example 19, (S)-N-[[3-[3-Fluoro-4-(4-morpholinyl)phenyl]-2-oxo-5-10 oxazolidinyl]methyl]-α-eyanothioacetamnide] | – | – | – | – | – | – | – | – | – | – | 32 | 32 | 64 | 32 | 32 | 16 | 16 | 16
13 | CC(=S)NC[C@H]1CN(c2ccc(-n3cncn3)c(F)c2)C(=O)O1 [Example 22] | – | 1 (≈ 2.98 µM) | 4 (≈ 11.9 µM) | 2 (≈ 5.96 µM) | 0.5 (≈ 1.49 µM) | 0.5 (≈ 1.49 µM) | < 0.125 | 0.25 (≈ 0.745 µM) | 1 (≈ 2.98 µM) | – | – | – | – | – | – | – | – | –
14 | CC(=S)NC[C@H]1CN(c2ccc(N3CCS(=O)(=O)CC3)c(F)c2)C(=O)O1 [Example 28, (S)-N-[[3-[3-Fluoro-4-(4-thiomorpholinyl)phenyl]-2-oxo-5-oxazolidinyl]methyl]thio-acetamide, thiomorpholine S, S-dioxide] | – | – | – | – | – | – | – | – | – | – | 0.5 | 0.5 | 2 | 1 | 0.5 | 0.25 | 0.25 | 0.25
15 | CSC(=S)NC[C@H]1CN(c2ccc(N3CCOCC3)c(F)c2)C(=O)O1 [Example 34] | – | – | – | – | – | – | – | – | – | – | 2 | 2 | >16 | 4 | 2 | 1 | 0.5 | 1
16 | COC(=S)NC[C@H]1CN(c2ccc(N3CCOCC3)c(F)c2)C(=O)O1 [Example 35] | – | – | – | – | – | – | – | – | – | – | 1 | 1 | 16 | 2 | 1 | 0.5 | 0.25 | 0.5
17 | COC(=S)NC[C@H]1CN(c2ccc(N3CC[S+]([O-])CC3)c(F)c2)C(=O)O1 [Example 100, (S)-N-[[3-[3-Fluoro-4-(4-thiomorpholinyl)phenyl]-2-oxo-5-oxazolidinyl]methyl]-O-methylthiocarbamate, thiomorpholine S-oxide] | – | – | – | – | – | – | – | – | – | 208 to 209 °C | – | – | – | – | – | – | – | –
18 | CC(=S)NC[C@H]1CN(c2ccc(N3CCCSCC3)cc2)C(=O)O1 [Example 534, (5S)-N-[[3-[4-(Tetrahydro-1,4-thiazepin-4(5H)-yl)phenyl]-2-oxo-5-oxazolidinyl]methyl]thioacetamide] | – | – | – | – | – | – | – | – | – | 129 to 131 °C | – | – | – | – | – | – | – | –
